Assay results as given in patent publication US20030125311A1, “Compounds capable of binding with the cytoskeleton” (priority 2002, published 2003).
Structures can show the parent of a compound that is named as a salt.

Key:
MT (Beef) = assay: Index of competition with pregnenolone, MT (beef); assay type: binding; conditions: Pregnenolone = 100%
Description: (§1) In trials of competition between pregnenolone and different steroids for the binding studied, 0.2 ml of cytosol is incubated with 100 nM of PREG [^3H] and a 1-, 10-, 100-, and 1,000-fold excess of non-radioactive steroid.

Cytosol (Rat) = assay: Index of competition with pregnenolone, cytosol (rat); assay type: binding; conditions: Pregnenolone = 100%
Description: as §1

Cytosol (piglet) = assay: Index of competition with pregnenolone, cytosol (piglet); assay type: binding; conditions: Pregnenolone = 100%; cell marked piglet
Description: as §1

[1] = system: rat brain cytosol binding sites of pregnenolone; assay: Competition trials for PREG [3H] binding in brain cytosol; parameters: key to R.C.R. 50 (relative competition index): IC50(PREG)/IC50(competitor) ×100; PREG = 100; conditions: for R.C.R. 50 (relative competition index): PREG = 100, 50% reduction of specific binding of 100 nM PREG [3H], mean±standard error, n=3
Description: as §1
To study the specificity of the binding of PREG [^3H], different steroids were used.
(§2) The relative competition index was determined as ratios of the concentrations of the competitor (in the […]) versus PREG causing a reduction of 50% of the specific binding of PREG [^3H]×100 (mean±standard error, n=3).

MAP2-tubulin copolymers = MAP2-tubulin copolymers (Bos taurus, UniProt A0A3Q1NAK9); assay: Competition for PREG [3H] binding to MAP2-tubulin copolymers (RCR); parameters: species or system calf; conditions: for RCR: MAP2-tubulin copolymers, PREG = 100
Description: as §1, §2
Purified calf brain tubulin (90 μg/ml), MAP2 (45 μg/ml) or tau protein (25 μg/ml) is incubated with 100 nM of PREG [^3H], with or without a 1,000-fold excess of non-radioactive PREG.

[2] = molecular target: T1, microtubules reconstituted with purified tubulin and MAP2 (Bos taurus, UniProt A0A3Q1NAK9); assay: Kinetics of assembling of microtubules (turbidity at 345 nm); assay type: biochemical, calf; conditions: for effect on assembling of microtubules (absorbance at 345 nm): 500 nM steroid, 37° C., 15 min
T1 construct: from tissue; host or cells: calf brain
Description: This assembling is measured by monitoring the increases of turbidity with a UVICON® spectrophotometer (Kontron Instruments, Montigny-le-Bretonneux, France)
The microtubules are reconstituted in vitro with purified tubulin (1 mg/ml) and MAP2 (0.05 mg/ml) in buffer A.
The increase of absorbance is measured at 345 nm, at 37° C. and recorded every 30 sec. for 15 min.
The assembling of microtubules is measured either in the absence of steroids (-⋄-); or in the presence of 500 nM of steroid: PREG (- -), progesterone (-X-), estradiol (-V-); or in the presence, at the same time, of PREG and progesterone (-∘-) or of PREG and estradiol (-Δ-) each at a concentration of 500 nM.

MAP-2c + Tubuline = molecular target: T2, MAP-2c + Tubuline (Homo sapiens, UniProt P11137); assay: Index of competition with pregnenolone, MAP-2c + tubulin; assay type: binding; conditions: Pregnenolone = 100%
T2 sequence (P11137 1-471 isoform P11137-2): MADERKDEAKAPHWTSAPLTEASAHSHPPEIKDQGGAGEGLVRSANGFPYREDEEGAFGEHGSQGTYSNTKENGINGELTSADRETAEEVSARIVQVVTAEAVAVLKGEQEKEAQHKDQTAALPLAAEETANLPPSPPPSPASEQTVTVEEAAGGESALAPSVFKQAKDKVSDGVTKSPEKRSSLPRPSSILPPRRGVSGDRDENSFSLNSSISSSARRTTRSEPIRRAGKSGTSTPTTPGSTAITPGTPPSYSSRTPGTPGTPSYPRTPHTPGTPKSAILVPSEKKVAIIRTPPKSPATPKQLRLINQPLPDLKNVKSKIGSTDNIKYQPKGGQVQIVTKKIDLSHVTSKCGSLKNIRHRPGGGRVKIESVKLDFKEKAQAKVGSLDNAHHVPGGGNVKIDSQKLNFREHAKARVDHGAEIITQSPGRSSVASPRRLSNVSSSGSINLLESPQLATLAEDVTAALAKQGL
Description: as §1

fetal microtubules = fetal microtubules (Rattus norvegicus, UniProt P15146); assay: Competition for PREG [3H] binding to fetal microtubules (RCR); conditions: PREG = 100
Description: as §1
The microtubules are prepared starting from calf brain or adult or fetal rat brain according to an assembly/disassembly method, as a function of the temperature, in vitro (12).
as §2
The binding of PREG [^3H] to microtubules prepared by polymerization/depolymerization cycles was determined.

[3] = system: binding sites of PREG [3H] in brain cytosol; assay: Effects of hydrolytic enzymes on the binding of PREG [3H] in cytosol; parameters: species or system rat
Description: Proteinase K (Merck, Darmstadt, Germany) and Pronase® are dissolved at 1 mg/ml in TNM buffer containing 10 mM of Tris, 0.1M of NaCl, 3 mM of MgCl2 (pH 7.4). Deoxyribonuclease I and ribonuclease A are products of Sigma-Aldrich and are respectively adjusted to 100 IU/ml and 5 IU/ml. Phospholipase A2 (Roche Molecular Biochemicals) is diluted to 20 IU/ml in TNM.
1 ml of brain cytosol is incubated with 0.2 ml of an enzyme solution at 37° C. for 30 min. The binding activity is studied of samples (0.2 ml) which had undergone the enzyme treatment or control samples diluted with buffer only.
To study the effects of hydrolytic enzymes on the binding of PREG [^3H], samples of 1 ml of cytosol incubated with 0.2 ml of an enzyme solution at 37° C. for 30 min were used. The results obtained, expressed as % of the control incubation (cytosol diluted in a buffer) are reported in Table 1 (mean±standard error, n=3).

Sequence of fetal microtubules (P15146 whole entry): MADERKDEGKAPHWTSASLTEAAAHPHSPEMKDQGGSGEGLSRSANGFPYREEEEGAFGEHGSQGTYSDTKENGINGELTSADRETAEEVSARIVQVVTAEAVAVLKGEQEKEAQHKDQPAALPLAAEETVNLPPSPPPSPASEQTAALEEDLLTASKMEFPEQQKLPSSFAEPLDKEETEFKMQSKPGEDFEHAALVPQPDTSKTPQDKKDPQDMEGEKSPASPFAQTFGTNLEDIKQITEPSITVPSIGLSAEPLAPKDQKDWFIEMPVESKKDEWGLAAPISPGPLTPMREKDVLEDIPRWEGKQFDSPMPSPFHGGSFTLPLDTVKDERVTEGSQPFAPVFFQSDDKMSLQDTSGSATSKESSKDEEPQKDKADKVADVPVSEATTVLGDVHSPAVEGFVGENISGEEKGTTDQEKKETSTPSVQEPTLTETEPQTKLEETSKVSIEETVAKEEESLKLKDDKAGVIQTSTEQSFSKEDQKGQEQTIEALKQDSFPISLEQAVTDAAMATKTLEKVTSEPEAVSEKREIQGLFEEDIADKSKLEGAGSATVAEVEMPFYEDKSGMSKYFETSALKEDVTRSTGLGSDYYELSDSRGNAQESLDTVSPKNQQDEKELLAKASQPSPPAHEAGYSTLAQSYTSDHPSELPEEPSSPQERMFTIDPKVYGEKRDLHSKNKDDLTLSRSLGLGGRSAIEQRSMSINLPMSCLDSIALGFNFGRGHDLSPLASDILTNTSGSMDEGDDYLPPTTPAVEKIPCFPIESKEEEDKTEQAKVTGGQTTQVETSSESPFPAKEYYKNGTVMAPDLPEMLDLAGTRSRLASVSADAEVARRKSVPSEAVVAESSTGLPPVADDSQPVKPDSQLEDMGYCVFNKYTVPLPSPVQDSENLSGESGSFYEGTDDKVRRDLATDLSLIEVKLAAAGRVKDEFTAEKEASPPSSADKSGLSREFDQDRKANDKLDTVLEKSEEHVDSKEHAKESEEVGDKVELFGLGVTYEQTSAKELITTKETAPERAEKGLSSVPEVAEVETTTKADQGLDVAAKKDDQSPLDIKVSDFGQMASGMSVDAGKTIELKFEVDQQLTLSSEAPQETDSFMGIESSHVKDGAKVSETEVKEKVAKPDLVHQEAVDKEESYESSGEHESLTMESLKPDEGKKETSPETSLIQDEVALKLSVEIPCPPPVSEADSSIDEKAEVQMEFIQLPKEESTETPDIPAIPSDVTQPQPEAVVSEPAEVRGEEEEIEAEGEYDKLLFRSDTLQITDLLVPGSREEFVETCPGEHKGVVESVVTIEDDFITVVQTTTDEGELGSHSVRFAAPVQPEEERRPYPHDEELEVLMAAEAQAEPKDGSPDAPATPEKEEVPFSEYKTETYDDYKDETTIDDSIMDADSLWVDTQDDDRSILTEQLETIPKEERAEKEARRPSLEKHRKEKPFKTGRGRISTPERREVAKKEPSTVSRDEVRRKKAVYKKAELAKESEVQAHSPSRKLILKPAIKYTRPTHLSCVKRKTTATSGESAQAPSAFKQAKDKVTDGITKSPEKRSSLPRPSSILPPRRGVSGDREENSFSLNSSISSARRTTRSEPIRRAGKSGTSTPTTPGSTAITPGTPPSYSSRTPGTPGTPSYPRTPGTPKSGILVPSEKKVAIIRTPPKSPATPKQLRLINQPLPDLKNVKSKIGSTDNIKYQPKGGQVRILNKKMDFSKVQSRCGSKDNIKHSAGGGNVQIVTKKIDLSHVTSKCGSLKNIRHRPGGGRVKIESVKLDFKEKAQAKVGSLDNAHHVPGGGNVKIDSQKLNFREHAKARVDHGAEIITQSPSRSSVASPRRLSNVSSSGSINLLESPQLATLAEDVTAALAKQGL
T1 sequence (A0A3Q1NAK9 1-1867): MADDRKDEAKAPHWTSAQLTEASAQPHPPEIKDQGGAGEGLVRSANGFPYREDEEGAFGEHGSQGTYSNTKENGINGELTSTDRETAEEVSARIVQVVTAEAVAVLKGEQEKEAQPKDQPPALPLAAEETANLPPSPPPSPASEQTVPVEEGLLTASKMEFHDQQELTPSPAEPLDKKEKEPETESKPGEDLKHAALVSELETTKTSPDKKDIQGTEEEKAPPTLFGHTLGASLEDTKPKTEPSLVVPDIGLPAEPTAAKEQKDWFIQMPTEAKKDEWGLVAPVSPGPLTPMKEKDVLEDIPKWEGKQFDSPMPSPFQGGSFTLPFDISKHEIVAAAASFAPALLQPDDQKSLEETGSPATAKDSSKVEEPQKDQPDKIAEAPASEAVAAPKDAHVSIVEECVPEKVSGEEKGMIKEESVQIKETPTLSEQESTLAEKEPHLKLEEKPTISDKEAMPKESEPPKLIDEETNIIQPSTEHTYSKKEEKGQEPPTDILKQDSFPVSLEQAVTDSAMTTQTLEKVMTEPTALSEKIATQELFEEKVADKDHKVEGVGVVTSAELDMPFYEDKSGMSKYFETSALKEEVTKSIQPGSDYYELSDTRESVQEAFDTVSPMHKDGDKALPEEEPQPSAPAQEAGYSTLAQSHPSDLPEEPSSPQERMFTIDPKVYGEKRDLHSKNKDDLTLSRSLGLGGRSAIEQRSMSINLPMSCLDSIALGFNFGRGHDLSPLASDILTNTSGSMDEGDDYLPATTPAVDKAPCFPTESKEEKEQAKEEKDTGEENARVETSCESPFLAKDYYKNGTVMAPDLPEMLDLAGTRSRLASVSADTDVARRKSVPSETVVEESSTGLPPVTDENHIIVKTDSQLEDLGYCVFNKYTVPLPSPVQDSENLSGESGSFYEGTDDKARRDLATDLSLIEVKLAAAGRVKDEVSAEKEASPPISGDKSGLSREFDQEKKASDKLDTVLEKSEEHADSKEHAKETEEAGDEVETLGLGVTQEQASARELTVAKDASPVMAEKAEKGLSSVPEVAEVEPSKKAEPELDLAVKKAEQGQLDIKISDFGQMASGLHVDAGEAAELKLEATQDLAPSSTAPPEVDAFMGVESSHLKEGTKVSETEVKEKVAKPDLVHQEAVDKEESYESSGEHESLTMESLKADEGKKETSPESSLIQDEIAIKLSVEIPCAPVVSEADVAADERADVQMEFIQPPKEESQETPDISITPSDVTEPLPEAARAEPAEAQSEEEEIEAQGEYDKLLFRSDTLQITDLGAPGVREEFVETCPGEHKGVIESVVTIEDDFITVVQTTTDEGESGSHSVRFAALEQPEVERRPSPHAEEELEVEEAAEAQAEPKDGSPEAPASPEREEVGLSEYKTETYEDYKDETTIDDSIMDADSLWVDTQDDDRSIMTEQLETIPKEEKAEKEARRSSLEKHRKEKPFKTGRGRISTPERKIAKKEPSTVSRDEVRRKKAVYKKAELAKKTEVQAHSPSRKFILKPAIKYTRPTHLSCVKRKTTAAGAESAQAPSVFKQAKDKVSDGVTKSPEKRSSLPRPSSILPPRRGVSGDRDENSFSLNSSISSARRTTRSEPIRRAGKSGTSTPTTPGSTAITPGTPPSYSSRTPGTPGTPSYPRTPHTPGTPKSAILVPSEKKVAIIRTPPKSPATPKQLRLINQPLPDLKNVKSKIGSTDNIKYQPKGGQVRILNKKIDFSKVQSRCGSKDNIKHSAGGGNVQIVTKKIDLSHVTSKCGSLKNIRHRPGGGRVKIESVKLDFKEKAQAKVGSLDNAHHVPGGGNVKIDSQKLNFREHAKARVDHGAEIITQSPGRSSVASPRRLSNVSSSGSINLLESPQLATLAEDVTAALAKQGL
Sequence of MAP2-tubulin copolymers (A0A3Q1NAK9 1-1867): as above

CC(=O)C1CC=C2C3CC=C4CC(O)CCC4(C)C3CCC21C (stereo not drawn) [3β-OH-5, 14 Preqnadiene-20-one]
Index of Competition, MT (Beef) (MT (Beef)): 95% | Index of Competition, Cytosol (Rat) (Cytosol (Rat)): 102%

CC(=O)OCC(=O)[C@H]1CC[C@H]2[C@@H]3CC=C4C[C@@H](O)CC[C@]4(C)[C@H]3CC[C@]12C [3β-OH-Pregna-5-ene-20-one-21-acetoxy]
Index of Competition, MT (Beef) (MT (Beef)): 107% | Index of Competition, Cytosol (piglet) (Cytosol (piglet)): 80 (piglet) %

CC(=O)[C@H]1CC[C@H]2[C@@H]3CC[C@H]4C[C@@H](O)CC[C@]4(C)[C@H]3CC[C@]12C [3β-hydroxy-5α-pregnane 20-one, 3β-hydroxy-5α-pregnane-20-one]
competition for the binding of PREG [3H] (in words) [1]: effective competitor | times less active than PREG as competitor [1]: 5 times | R.C.R. 50 (relative competition index) [1]: 18.4 ± 4.0

C[C@H](O)C1CCC2C3CCC4CC(O)CCC4(C)C3CCC21C (stereo partly drawn) [5a-Pregnama 3β, 20a-diol]
Index of Competition, MT (Beef) (MT (Beef)): 96% | Index of Competition, Cytosol (Rat) (Cytosol (Rat)): 100%

CC(=O)[C@@]1(O)CC[C@H]2[C@@H]3CC=C4C[C@@H](O)CC[C@]4(C)[C@H]3CC[C@@]21C [17α-hydroxy-pregnenolone]
R.C.R. 50 (relative competition index) [1]: 0.85

CC(=O)[C@@]1(O)CC[C@H]2[C@@H]3CCC4=CC(=O)CC[C@]4(C)[C@H]3CC[C@@]21C [17α-hydroxy-progesterone]
R.C.R. 50 (relative competition index) [1]: 0.79

CC(C)CCC[C@@H](C)[C@H]1CC[C@H]2[C@@H]3CC=C4C[C@@H](O)CC[C@]4(C)[C@H]3CC[C@]12C [Cholesterol]
R.C.R. 50 (relative competition index) [1]: 0.02

C[C@]12CC[C@H](O)CC1=CC[C@@H]1[C@@H]2CC[C@]2(C)C(=O)CC[C@@H]12 [Dehydroepiandrosterone]
RCR (MAP2-tubulin copolymers): 2.3

C[C@]12CC[C@@H]3c4ccc(O)cc4CC[C@H]3[C@@H]1CC[C@@H]2O [Estradiol]
effect on assembling of microtubules (absorbance at 345 nm) [2]: inactive

CC(=O)C1CCC2C3CC=C4CC(OS(=O)(=O)c5ccc(C)cc5)CCC4(C)C3CCC12C (stereo not drawn) [PREG Tosylate]
Index of Competition, MT (Beef) (MT (Beef)): 121% | Index of Competition, Cytosol (Rat) (Cytosol (Rat)): 107% | Index of Competition, MAP-2c + Tubuline (MAP-2c + Tubuline): 129%

CC(=O)C1[C@H](C)CC2C3CC=C4CC(O)CCC4(C)C3CCC21C (stereo partly drawn) [PREG-16a-methyl]
Index of Competition, MT (Beef) (MT (Beef)): 88% | Index of Competition, Cytosol (Rat) (Cytosol (Rat)): 80%

[2H]OC1CCC2(C)C(=CCC3C2CCC2(C)C3CC(C)C2C(C)=O)C1 (stereo not drawn) [PREG-16β-methyl]
Index of Competition, MT (Beef) (MT (Beef)): 83 (beef) % | Index of Competition, Cytosol (Rat) (Cytosol (Rat)): 63% | Index of Competition, MAP-2c + Tubuline (MAP-2c + Tubuline): 97%

CC(=O)C1CCC2C3CC=C4CC(OS(=O)(=O)O)CCC4(C)C3CCC12C (stereo not drawn) [Preqnenolone sulfate, pregnenolone sulfate]
RCR (fetal microtubules): 78.8 | RCR (MAP2-tubulin copolymers): 91.5 | competition for the binding of PREG [3H] (in words) [1]: best competitors | R.C.R. 50 (relative competition index) [1]: 78.8 ± 7.0 | effect on assembling of microtubules (absorbance at 345 nm) [2]: effects similar to those of progesterone

CC(=O)[C@H]1CC[C@H]2[C@@H]3CCC4=CC(=O)CC[C@]4(C)[C@H]3CC[C@]12C [Progesterone]
RCR (fetal microtubules): 72.1 | binding to MAP2 (in words) (MAP2-tubulin copolymers): affinity for MAP2 of the same order as that of PREG | RCR (MAP2-tubulin copolymers): 81.3 | competition for the binding of PREG [3H] (in words) [1]: best competitors | R.C.R. 50 (relative competition index) [1]: 72.1 ± 17.7 | effect on assembling of microtubules (absorbance at 345 nm) [2]: without effect | effect on PREG-stimulated assembly of microtubules ([2]; with PREG, each at 500 nM): counteracts the stimulative effect of PREG on the assembly of microtubules

C[C@]12CC[C@H]3[C@@H](CCC4=CC(=O)CC[C@@]43C)[C@@H]1CC[C@@H]2O [Testosterone, reference compound]
RCR (fetal microtubules): 5.6 | RCR (MAP2-tubulin copolymers): 2.3

[2H]OC1CCC2(C)C(=CCC3C2CCC2(C)C3CCC2[C@H](C)O)C1 (stereo partly drawn) [Δ5-pregnene-3β.20α-diol, Δ5-pregnene-3β, 20α-diol]
Index of Competition, MT (Beef) (MT (Beef)): 100 (beef) % | Index of Competition, Cytosol (Rat) (Cytosol (Rat)): 87% | competition for the binding of PREG [3H] (in words) [1]: best competitors | R.C.R. 50 (relative competition index) [1]: 68.4 ± 15.3

Phospholipase A2 [reference compound]
% of Control (binding of PREG [3H]) ([3]; cytosol incubated with enzyme at 37° C. for 30 min, mean±standard error, n=3): 85.0 ± 7.3% | effect on binding sites of PREG [3H] (in words) ([3]; enzyme treatment of cytosol): no significant effect
